Measured values as given in US9567318B2, “Substituted pyrimidine compounds and uses thereof” (Memorial Sloan-Kettering Cancer Center, priority 2009, dated 2017).
Entries after “also recorded” stand apart in the source; their conditions may differ.

Columns and labels:
[1] = tested on: HER2, Raf-1, Akt, Hsp70 in SKBr3 cells; test: Western blotting of Hsp90 onco-client proteins and Hsp70 in SKBr3 cells; format: cell-based, human; conditions: SKBr3 cells, 24 h
Procedure: FIG. 3. Testing strategy for the discovery of YK5. a, b) SKBr3 cells were treated for 24 h with the indicated concentrations of inhibitors and cells were lysed for western blot (WB) analysis. β-actin was used as loading control. The data are consistent with those obtained from multiple repeat experiments (n≧3). c) The ability of the indicated inhibitors to compete with GM-Cy3B for Hsp90 binding in SKBr3 cell extracts was examined by fluorescence polarization. Values recorded in wells with added inhibitor were normalized to values read in control wells and plotted against the concentration of tested inhibitor. Drugs were assayed in triplicate. All compounds were used as DMSO stocks. Points, mean; bars, s.d. d) Growth inhibition: SKBr3 cells were incubated in triplicate with increasing concentrations of compound and growth over 72 h was assessed. Y-axis values below 0% represent cell death of the starting population. HER2 degradation was analyzed as in panel a), and gels were quantified by densitometry. Recorded values were normalized to control (vehicle only treated cells) and data graphed against YK5 concentration. Error bars represent the s.d. of the mean (n=3).
FIG. 8. […] Points, mean; bars, s.d. Yaxis values below 0% represent cell death of the starting population. c) Streptavidin beads (50 μl) were incubated with the indicated concentrations of YK55, YK56 or D-biotin to immobilize the corresponding compounds on beads. Beads (50 μl) were probed with SKBr3 cell extracts (500 μg), and the precipitated Hsp70 analyzed by western blot and quantified by […]. Results from three independent experiments were graphed to determine the relative binding affinity of YKs. Points, mean; bars, s.d. d) Structure of representative YKs. YK55 and YK56 are the biotinylated derivatives of YK54 and YK57, respectively.
FIG. 9. […] Cells were treated for 24 h with the indicated concentrations of YK149 and YK5. Cells were lysed and proteins analyzed by western blotting. b) Examples of the compounds of the present subject matter inhibit the activity of the oncogenic STAT3 in the triple-negative breast cancer cells MDA-MB-468. Cells were treated for the indicated times with compounds or vehicle and proteins analyzed by western blot. (c) Examples of the compounds of the present subject matter dose-dependently induce apoptosis in the acute myeloid leukemia cells MOLM13. Cells were treated for 24 h with the indicated concentration of compounds and the increase in caspase3,7 activity was measured and compared to only vehicle (DMSO) treated cells. Caspase-3,7 activity was a measure of compound potency in cleaving the caspase substrate Z-DEVD-R110 and releasing rhodamine. The percentage increase in apoptotic cells was calculated by comparing the fluorescence readings obtained from compounds with those obtained from vehicle (DMSO)-treated cells.
Western Blotting. Cells were grown to 60-70% confluence and treated with inhibitor or DMSO vehicle for the indicated times. Protein lysates were prepared in 50 mM Tris pH 7.4, 150 mM NaCl and 1% NP-40 lysis buffer. Protein concentrations were measured using the BCA kit (Pierce) according to the manufacturer's instructions. […]

359 kinases = test: Kinase screen (scanMAX, Ambit); format: binding
Procedure: FIG. 6. YK5 inhibits core biochemical functions of Hsp70s and disrupts the Hsp90/Hsp70 interaction. a) Refolding of denatured luciferase by Hsc70 and DJA2 at 30° C. was measured for the indicated times in the presence of YK5 (100 μM) or vehicle (left), or at 60 min in the presence of indicated concentrations of YK5 (right). b) Hsc70 ATPase rates were measured for reactions at 30° C. with the indicated combinations of Hsc70 and co-chaperones in the presence of vehicle (DMSO) or YK5 (100 μM). ADP production was monitored by thin layer chromatography separation of radiolabeled ADP from ATP and phosphorimaging analysis (lower). The data are consistent with those obtained from multiple repeat experiments (n≧2). c,d) SKBr3 cells were treated for 24 h with vehicle or indicated concentrations of YK5 (c) or for the indicated times with YK5 (10 μM) (d). Proteins isolated with anti-Hsp90 and Hsp70s antibodies (IP: Hsp90 or Hsp70), or present in the cell extract (Lysate) were analyzed by WB. […] Proteins were applied to a native gel and analyzed by immunoblotting. […]
Kinase Screen. […] The kinase concentration in the eluates was measured by qPCR. KINOMEscan's selectivity score (S) is a quantitative measure of compound selectivity. It is calculated by dividing the number of kinases that bind to the compound by the total number of distinct kinases tested, excluding mutant variants. […]

C=CC(=O)Nc1cc(N)nc(Sc2c(OC)nc(N3CCN(C)CC3)nc2OC)n1 [YK5, N-(6-amino-2-(4,6-dimethoxy-2-(4-methylpiperazin-1-yl)pyrimidin-5-ylthio)pyrimidin-4-yl)acrylamide]
feed-back induction of Hsp70 (heat shock response) [1]: undetected | degradation of Hsp90 onco-client proteins (HER2, Raf-1, Akt) ([1]; western blot): dose-dependently reduce the steady-state levels of HER2 and Raf-1; also recorded: induced the degradation of HER2, Raf-1 and Akt kinases | activity against 359 kinases (359 kinases; 10 μM): inert | c-Met in the kinase screen (359 kinases; TREEspot interaction map): potential low affinity kinase hit
